# Test results: paper PMC8909834, “An Orally Bioavailable and Highly Efficacious Inhibitor of CDK9/FLT3 for the Treatment of Acute Myeloid Leukemia” (Cancers, 2022)
# Assays:
# [1] = test system: other members of the CDK family; experiment: ADP Glo kinase assay, CDK selectivity; assay type: biochemical, human; details: ratio of potency
# Protocol: Kinase assay. The ADP Glo^TM kinase assay (Promega, Madison, WI, USA) was used to assess the inhibition by CDDD11-8 of CDKs 1, 2, 4, 6, 7, and 9, as well as the mutant isoforms of FLT3. The assays were performed in accord with the manufacturer’s protocol (Promega) as described previously. Briefly, serial three-fold dilutions of CDDD11-8 were prepared in 100% DMSO from a 2 mM stock solution, followed by 1:40 dilution into Milli-Q water. […] Luminescence was read using an EnVision® multilabel plate reader (PerkinElmer, Beaconsfield, UK), and half-maximum inhibitory concentrations (IC50) were calculated using a non-linear regression model with a variable slope, plotting log (inhibitor concentration) vs. response using the following formula: Ar%=Bottom+Top−Bottom/1+Inhibitor Concentration/IC50^HillSlope where the relative activity Ar (%) is the signal relative to the controls, IC50 is the half maximum concentration, Hillslope is the steepness of the dose-response curve, Top and Bottom are plateaus reflecting the maximum and minimum in responses on the Y-axis (GraphPad Prism version 7, San Diego, CA, USA). Ki values were calculated from the IC50 using the Cheng−Prusoff equation [32]. […]
# [2] = test system: MV4-11 tumor xenografts; experiment: In vivo xenograft study; details: for MST (median survival time): vehicle MST = 38 days; for mice with unmeasurable tumor size (zero tumor volume): day 29, n = 7
# Protocol: In vivo xenograft study. The in vivo efficacy of CDDD11-8 on tumors developed in mice from AML cells was evaluated by engrafting 5 × 10^6 MV4-11 cells suspended in a 1:1 mixture of Matrigel^TM (Becton Dickinson, Corning, NY, USA) and serum-free medium (100 µL) subcutaneously into the right flank of female BALB/c nude (nu/nu) mice (6–7 weeks). When the tumor reached a volume of 100–200 mm^3, mice were randomized into 3 groups (n = 7). Mice in G1 received vehicle (acetate buffer at pH 4.74), while mice in G2 and G3 received CDDD11-8, at 75 and 125 mg/kg, respectively. Both CDDD11-8 and vehicle were administered orally, once a day for 28 days. Clinical signs of toxicity were observed daily; body weights were measured daily during the dosing period and every other day thereafter. Tumor dimensions, i.e., length (L) and width (W), were measured every other day using Vernier calipers. The tumor volume was calculated using the formula 0.52 × L × W^2, where L and W are perpendicularly measured diameters and L ≥ W. Mice were humanely killed by CO2 asphyxiation when the tumor volume reached 1500 mm^3 or the percent loss of body weight exceeded 15%, or the study was completed.
# Data were analyzed statistically using GraphPad Prism version 7. Descriptive statistics (frequency, mean, percentage) were used to report tumor volume, body weights, daily change in body weights from day 1 of dosing, and the ratio of tumor volume between treatment and control groups (T/C). Statistical differences in tumor volume between treated and control groups were analyzed using two-way ANOVA, where days on which the tumor volume was measured and treatments were the two independent factors, with a two-tailed significance cut-off level of p < 0.05. Tumor growth inhibition (TGI) was calculated as %TGI = [((VCD − VCB) − (VTD − VTB))/(VCD − VCB)] × 100, where VCD and VTD were the tumor volumes of the vehicle and treated groups on the calculated day, respectively, and VCB and VTB were the tumor volumes of the vehicle and treated groups at baseline (day 1). Kaplan–Meier survival analysis was performed, and group comparisons were done with the Gehan–Breslow–Wilcoxon test with Bonferroni correction method.
smiles,measurement,setting,value
Cc1cnc(N[C@H]2CC[C@H](N)CC2)nc1-c1cnc2ccc(-c3ccccc3)cn12 [CDDD11-8],selectivity for CDK9 over other members of the CDK family,[1],> 50 fold
same,day from which inhibition of tumor growth was statistically significant vs vehicle,[2]; 75 mg/kg PO QD,9 days
same,increase in the life span,[2]; 75 mg/kg PO QD 28 days,29%
same,MST (median survival time),[2]; 75 mg/kg PO QD 28 days,49 days
same,T/C%,"[2]; 75 mg/kg PO QD, day 1",101%
same,% TGI,"[2]; 75 mg/kg PO QD, day 3",92%
same,T/C%,"[2]; 75 mg/kg PO QD, day 3",75%
same,% TGI,"[2]; 75 mg/kg PO QD, day 5",101%
same,T/C%,"[2]; 75 mg/kg PO QD, day 5",60%
same,% TGI,"[2]; 75 mg/kg PO QD, day 7",95%
same,T/C%,"[2]; 75 mg/kg PO QD, day 7",50%
same,% TGI,"[2]; 75 mg/kg PO QD, day 9",115%
same,T/C%,"[2]; 75 mg/kg PO QD, day 9",32%
same,% TGI,"[2]; 75 mg/kg PO QD, day 11",121%
same,T/C%,"[2]; 75 mg/kg PO QD, day 11",22%
same,% TGI,"[2]; 75 mg/kg PO QD, day 13",127%
same,T/C%,"[2]; 75 mg/kg PO QD, day 13",12%
same,% TGI,"[2]; 75 mg/kg PO QD, day 15",129%
same,T/C%,"[2]; 75 mg/kg PO QD, day 15",8%
same,% TGI,"[2]; 75 mg/kg PO QD, day 17",128%
same,T/C%,"[2]; 75 mg/kg PO QD, day 17",6%
same,% TGI,"[2]; 75 mg/kg PO QD, day 19",125%
same,T/C%,"[2]; 75 mg/kg PO QD, day 19",5%
same,% TGI,"[2]; 75 mg/kg PO QD, day 21",119%
same,T/C%,"[2]; 75 mg/kg PO QD, day 21",5%
same,% TGI,"[2]; 75 mg/kg PO QD, day 23",112%
same,T/C%,"[2]; 75 mg/kg PO QD, day 23",5%
same,% TGI,"[2]; 75 mg/kg PO QD, day 25",105%
same,T/C%,"[2]; 75 mg/kg PO QD, day 25",9%
same,% TGI,"[2]; 75 mg/kg PO QD, day 27",96%
same,T/C%,"[2]; 75 mg/kg PO QD, day 27",15%
same,% TGI,"[2]; 75 mg/kg PO QD, day 29",92%
same,mice with unmeasurable tumor size (zero tumor volume),[2]; 75 mg/kg PO QD,one
same,animals with tumor regression,"[2]; 75 mg/kg PO QD, starting on day 9, n = 7",two out of seven animals
same,day from which inhibition of tumor growth was statistically significant vs vehicle,[2]; 125 mg/kg PO QD,7 days
same,increase in the life span,[2]; 125 mg/kg PO QD 28 days,45%
same,MST (median survival time),[2]; 125 mg/kg PO QD 28 days,55 days
same,T/C%,"[2]; 125 mg/kg PO QD, day 1",102%
same,% TGI,"[2]; 125 mg/kg PO QD, day 3",127%
same,T/C%,"[2]; 125 mg/kg PO QD, day 3",66%
same,% TGI,"[2]; 125 mg/kg PO QD, day 5",133%
same,T/C%,"[2]; 125 mg/kg PO QD, day 5",47%
same,% TGI,"[2]; 125 mg/kg PO QD, day 7",122%
same,T/C%,"[2]; 125 mg/kg PO QD, day 7",36%
same,% TGI,"[2]; 125 mg/kg PO QD, day 9",142%
same,T/C%,"[2]; 125 mg/kg PO QD, day 9",16%
same,% TGI,"[2]; 125 mg/kg PO QD, day 11",137%
same,T/C%,"[2]; 125 mg/kg PO QD, day 11",12%
same,% TGI,"[2]; 125 mg/kg PO QD, day 13",139%
same,T/C%,"[2]; 125 mg/kg PO QD, day 13",4%
same,% TGI,"[2]; 125 mg/kg PO QD, day 15",136%
same,T/C%,"[2]; 125 mg/kg PO QD, day 15",3%
same,% TGI,"[2]; 125 mg/kg PO QD, day 17",133%
same,T/C%,"[2]; 125 mg/kg PO QD, day 17",2%
same,% TGI,"[2]; 125 mg/kg PO QD, day 19",130%
same,T/C%,"[2]; 125 mg/kg PO QD, day 19",2%
same,% TGI,"[2]; 125 mg/kg PO QD, day 21",123%
same,T/C%,"[2]; 125 mg/kg PO QD, day 21",2%
same,% TGI,"[2]; 125 mg/kg PO QD, day 23",117%
same,T/C%,"[2]; 125 mg/kg PO QD, day 23",1%
same,% TGI,"[2]; 125 mg/kg PO QD, day 25",114%
same,T/C%,"[2]; 125 mg/kg PO QD, day 25",1%
same,% TGI,"[2]; 125 mg/kg PO QD, day 27",112%
same,T/C%,"[2]; 125 mg/kg PO QD, day 27",1%
same,% TGI,"[2]; 125 mg/kg PO QD, day 29",109%
same,animals with tumor regression still maintained,"[2]; 125 mg/kg PO QD, day 29",six out of seven mice
same,mice with unmeasurable tumor size (zero tumor volume),[2]; 125 mg/kg PO QD,three
same,animals with tumor regression,"[2]; 125 mg/kg PO QD, from day 7, n = 7",all the mice
same,tolerability,"[2]; 75 and 125 mg/kg PO QD 28 days, tumor-bearing mice",well tolerated
